Measured values taken from a melting point compilation (Tetko et al.; mined from patent text by program, amines drawn as free bases though some values may be those of a salt).

| melting point [°C] | Structure (SMILES) |
| --- | --- |
| 138 to 140 | CCNC(=S)NS(=O)(=O)N1CCC(CCNC(=O)c2cc(Cl)ccc2OC)CC1 |
| 137 to 139 | COC(=O)c1cc(F)c(Cl)nc1Nc1ccc(F)cc1F |
| 149 to 150 | OC(Cn1cncn1)(c1ccc(Cl)cn1)c1ccc(Cl)cc1Cl (stereo not drawn) |
| 184 to 185 | NC(=O)[C@@H]1[C@H](Nc2c(Br)cnc3[nH]c(-c4cccc(CN5CCOCC5)c4)nc23)[C@H]2C=C[C@@H]1C2 |
| 219 to 220 | Cn1cc(C(=O)NCc2ccc(Cl)cc2)c(=O)c2cc(CN=[N+]=[N-])ccc21 |
| 112 | Cc1ccccc1N(CCC(=O)O)C(=O)Cl |
| 170 to 172 | CCCN(Cc1ccc(-c2ccccc2-c2nc(=S)o[nH]2)cc1)c1nc(C)ncc1C(=O)OCC |
| 124 to 127 | COc1cc2c(cc1OC)/C(=N/OCc1ccc([N+](=O)[O-])cc1)CCC2 |
| 110 | COC1=CCC2=C(CCC3C2CCC2(C)C(O)CCC32)C1 (stereo not drawn) |
| 97 to 99 | CC(C)(CCl)C(=O)C(Oc1ccc(-c2ccc(Cl)cc2)cc1)n1ccnc1 (stereo not drawn) |
| 110 to 115 | O=C(c1ccc2[nH]cnc2c1)N1CCC[C@H](c2nc(-c3ccc(F)cc3)no2)C1 |
| 81 to 82 | CCCCCCCCCCCCCCOC(=O)c1ccc(Cl)c(NC(=O)C(C(=O)c2ccccc2)N2C(=O)c3ccccc3C2=O)c1 (stereo not drawn) |
| 53 to 59 | OC(CCCN1CCN(c2ncc(F)cn2)CC1)(c1ccc(F)cc1)C1CCCCC1 (stereo not drawn) |
| 101 to 103 | Clc1ccc(CCCN2CCc3cc(OC[C@H]4CO[C@](Cn5ccnc5)(c5ccc(Cl)cc5)O4)ccc3C2)cc1 (racemic) |
| 240 | O=P1(O)Oc2c(Cl)cc(Cc3ccccc3)cc2-c2ccccc21 |
| 136 to 138 | CCN1CCCCC1CCc1ccccc1NC(=O)c1ccc(OC)cc1 (stereo not drawn) |
| 103 | O=C1C=CC(O)(c2cccs2)C=C1 |
| 114 to 115 | CCS(=O)CC(=O)Nc1c(C)cccc1C (stereo not drawn) |
| 123 to 125 | CCC(=O)Oc1cc(C(C)C)ccc1C1(OC(=O)CC)C(=O)c2ccccc2C1=O |
| 251 to 252 | NC(=O)c1c(C(=O)O)cnn1-c1ccc(Br)cc1 |
| 156 to 157 | CCOCc1nc2c(N)nc3cccnc3c2n1CCCC(=O)N1CCOCC1 |
| 205 to 208 | CCCCOc1cc2c(nc(O)n2Cc2ccccc2)c(N)n1 |
| 139 to 140 | COc1ccc(-c2c(Cl)c(CN3CCCC3=O)nc3sc4c(c23)CCN(Cc2ccccc2)C4)cc1OC |
| 72 | CC(NC(=O)C(CS)C(C)c1ccc(O)cc1)C(=O)O (stereo not drawn) |

| melting point [°C] | Structure (SMILES) |
| --- | --- |
| 205 to 206 | COc1ccc([N+](=O)[O-])c2c1CC(NC(C)=O)CC2 (stereo not drawn) |
| 243 to 245 | O=C(Nc1ccc(S(=O)(=O)N2CCOCC2)cc1)c1cc(Cl)ccc1[N+](=O)[O-] |
| 174 to 175 | O=C1C(=O)c2ccccc2C2=C1SCC1(CCN(CC(O)COc3ccc(F)cc3)CC1)O2 (stereo not drawn) |
| > 280 | NC(C(=O)O)c1cc(O)cc(O)c1[N+](=O)[O-] (stereo not drawn) |
| 227 to 228 | O=C(NNc1ccccc1)N1CCN2C(=O)OC(c3ccccc3)(c3ccccc3)C2C1 (stereo not drawn) |
| > 290 | CC(=O)Nc1cc(NC(C)=O)cc([N+](=O)[O-])c1 |
| 174 to 176 | CC(=O)Nc1ccc(O[C@H]2CCN(C)C[C@H]2c2ccccc2)cc1 (relative stereo) |
| 184 to 186 | O=C(NO)c1ccc(C(=O)NOCC2CCc3ccccc3C2)cc1 (stereo not drawn) |
| 191 to 192 | COc1ccc(S(=O)(=O)Nc2ccccc2NC(=O)c2cccc(O)c2)cc1 |
| 212 to 214 | CCS(=O)(=O)C(F)(F)C(Cn1cncn1)(OP(=O)(O)O)c1ccc(F)cc1F (single isomer, unassigned; (+)) |
| 276 to 278 | O=C(C=Cc1ccccc1)NN1CC(=O)NC1=O |
| 200 to 202 | CCCCc1nc(Cl)c(C(N)=O)n1Cc1ccc(-c2ccccc2C(=O)O)cc1 |
| 258 to 259 | CCCCCCCCCOC1C(O)C(CO)OC1n1cnc2c(=O)[nH]c(N)nc21 (stereo not drawn) |
| 117 to 120 | COC1(c2ccccc2)OC=C(c2ccc(CCC(=O)O)cc2)C1=O (stereo not drawn) |
| 114 to 115 | COc1ccc2cccnc2c1N |
| 103 to 105 | Cc1nc2nc(SCc3ccccc3)nn2c(Cl)c1Cl |
| 124 to 129 | CC1C(=O)N(C(=O)NS(=O)(=O)c2ccc(Cl)cc2)N1C(c1ccccc1)c1ccccc1 (stereo not drawn) |
| 221 | Fc1cccc(-c2ncc(-c3cnc(-c4ccccc4)nc3)[nH]2)c1 |
| 70 to 72 | COc1ccccc1C1=NC(C)(C)CO1 |
| 104 to 108 | CS(=O)(=O)c1ccc(C(CC2CCCC2)C(=O)Nc2cnccn2)cc1[N+](=O)[O-] (stereo not drawn) |
| 162 to 163 | CNc1ncnc2c1ncn2CCCN1CCN(c2ccccc2)CC1 |
| 142 | CCOC(=O)CC(Cc1ccc(OCCc2nc(-c3ccccc3)oc2C)cc1)C(N)=O (stereo not drawn) |
| 59 to 61 | Cc1ccc(C2=C(c3ccc(S(C)(=O)=O)cc3)CN(C)C2=O)c(C)c1 |
| 86 to 90 | COc1ccc(-c2nc(C)ccc2OC2SCC(O)C(O)C2O)cc1 (stereo not drawn) |

| melting point [°C] | Structure (SMILES) |
| --- | --- |
| 90 to 92.5 | COC(=O)C(C)c1cc(=O)n(Cc2ccccc2)c2ccccc12 (stereo not drawn) |
| 156 to 159 | COc1cc(C(=O)N2CCN(c3cccc(C)c3Cl)CC2)cc(OC)c1OC |
| 104 to 107 | C[C@@H](OC(=O)c1cc([N+](=O)[O-])cc([N+](=O)[O-])c1)[C@@]1(c2ccc(F)cc2F)CO1 |
| 225 to 226 | CC(C)c1[nH]n(-c2c(Cl)cc(Cl)cc2Cl)c2nc(Cc3ccc(N(C(=O)OC(C)(C)C)C(=O)[C@@H]4CCCN4)cc3)nc(=O)c1-2 |
| 103 | CC(=O)/C=C(\C)c1ccc(-c2ccccc2)c(F)c1 |
| 159 to 160 | CCOC(=O)c1cn(C(C)(C)C)c2nc(SCC)c(F)cc2c1=O |
| 252 to 254 | COc1ccc2c(c1)CCC(NC(C)=O)(C(=O)O)C2 (stereo not drawn) |
| 65 to 67 | CCCCCCCCN1C(=O)NC2(CC(C)(CC)NC(C)(CC)C2C)C1=O (stereo not drawn) |
| 108 to 110 | COc1cc(C)c(OC)cc1C |
| 161 to 162 | COc1ccc(CNC(=O)C2=C(C(=O)Nc3cc(OC4CCCC4)c(Cl)cc3F)CCCC2)cc1 |
| 80 to 81 | CCOc1ccccc1C(O)c1cc(Cl)ccc1N (stereo not drawn) |
| 150 to 151 | O=C(Nc1nc(=O)n(S(=O)(=O)c2ccccc2)cc1F)c1ccccc1 |
| 120 to 122 | CC(C)(C)OC(=O)N1C[C@@H](C=O)CC1=O |
| 98 to 99 | CCCCCCCCCCCCCCCCCCS(=O)(=O)c1cc2ccccc2cc1O |
| 194 | Cc1c(Cc2cccc(C(=O)O)c2)n(S(=O)(=O)c2cccc(C(C)(C)C)c2)c2ccc(C(F)(F)F)cc12 |
| 179 to 182 | NCc1cccc(CNc2ncc3ncnc(Nc4ccc(F)c(Cl)c4)c3n2)c1 |
| 193 to 195 | COC(=O)CSc1nc(Oc2ccc(N3CCNCC3)cc2)ncc1[N+](=O)[O-] |
| 39 to 41 | C=CCn1nc(CCCC)c(Cc2ccc(-c3ccccc3-c3nnn[nH]3)cc2)c1COC |
| 186 to 190 | O=C(Nc1ccccc1)c1ccc(-c2n[nH]c3c2Cc2ccccc2-3)cc1 |
| 114 | Clc1ccc2[nH]c3c(c2c1)CCN1CCCC=C31 |
| 161 to 162 | O=c1ccn([C@H]2C=C[C@@H](O)CC2)c(=O)[nH]1 (racemic) |
| 265 to 266 | C=Cc1cccc2[nH]c(C(=O)O)cc(=O)c12 |
| 165 to 166 | COc1cccc(CC(=O)O)c1OCCc1cn(-c2ccc(C(F)(F)F)cn2)nc1C(C)C |
| 163 | COc1cc(CNC(=O)c2ccc(Cl)cc2OCC(=O)O)cc(OC)c1 |

| melting point [°C] | Structure (SMILES) |
| --- | --- |
| 185 to 186 | Cn1ccc(=O)c(CO)c1 |
| 150 to 151 | CN(CCOc1ccc(CC2SC(=O)NC2=O)cc1)c1ncccn1 (stereo not drawn) |
| 112 to 113 | OC(c1ccc(Br)cc1)c1ccc(Br)cc1 |
| 120 to 121 | CCOC(=O)C1=C(C)NC(C)=C(C(=O)OCC)C1c1ccccc1Cl |
| 135 | CC(=O)OC1CSC(Oc2cccc(-c3cncc(F)c3)c2)C(OC(C)=O)C1OC(C)=O (stereo not drawn) |
| 86 to 98 | Cc1noc(NS(=O)(=O)c2ccccc2-c2ccc(-c3ncco3)cc2COCC(C)C)c1C |
| 199 | Cc1cc2c3c(c1)[nH]c(=O)n3CC(C)NC2 (stereo not drawn) |
| 203 | O=C(NC(=O)c1cc(F)c(F)cc1Cl)Nc1cccnc1N1CCC(C(=O)NCCO)CC1 |
| 122 to 124 | ClC1Cc2cc(Br)ccc2Sc2ccccc21 (stereo not drawn) |
| 210 to 214 | CS(=O)(=O)c1cc(C(=O)O)ccc1Oc1ccc(C(=S)Cc2ccc3ccccc3n2)cc1 |
| 144 to 146 | O=c1c(Cc2ccncc2)c(-c2ccc(F)cc2)[nH]c2ccccc12 |
| 294 to 300 | O=c1ccc2c(CO)nccc2[nH]1 |
| 116 to 118 | CN(CCO)Cc1cc(NC(=N)c2cccs2)ccc1C1CCCC1 |
| 87 to 88 | NC(=O)CCCSc1cccc(Br)n1 |
| 75 to 76 | CCc1onc(-c2ccccc2)c1C(=O)NCCCCl |
| 191 to 193 | CCOC(=O)c1cn(C2CC2)c2c(F)c(N3CC(OS(C)(=O)=O)C3)c(F)cc2c1=O |
| 185 to 187 | CCOc1cc(Cl)ccc1-c1nc2n(C3CCCC3)[nH]c(CC)c-2c(=O)n1 |
| 115 to 122 | Cc1cc(C(F)(F)F)nn1CC(=O)N1CCC(c2nc(C3=NOC(c4ccccc4Cl)C3)cs2)CC1 (stereo not drawn) |
| 138 to 140 | CC(C)(C)C(=O)c1ccc(C(N)=O)cc1 |
| 85 to 90 | CCOC(=O)CN(Cc1cc(F)ccc1F)S(=O)(=O)c1ccc(N2CCC(NC[C@H](O)c3ccc(O)c(NS(C)(=O)=O)c3)CC2)cc1 |
| 104 to 107 | C=CCCCS(=O)(=O)CCCC(=O)O |

| Structure (SMILES) | melting point [°C] |
| --- | --- |
| N#Cc1ccc(N2C(=O)NC3(CCOCC3)C2=O)cc1C(F)(F)F | 192 to 193 |
| N#CCn1nnnc1S | 116 to 118 |
| CN1C(=O)[C@H](NC(=O)C(c2ccccc2)c2ccccc2)N=C(c2ccccc2)c2ccccc21 | 200 to 201 |
| Clc1ccc2c(N3CCNCC3)n[nH]c2c1 | 135 to 137 |
| CC12CC3OC3CC1CCC1C2CCC2(C)C(O)C(N3CCC4(CC3)OCCO4)CC12 (stereo not drawn) | 186 to 188 |
